In brackets after ≈: the same amount, converted by molar mass. Counter-ions that a name gives are not always drawn. Like-named read-outs stand apart in the source and are kept apart here.
Legend:
arginine decarboxylase = details: cited from earlier work
[1] = target: ornithine decarboxylase (ODC); details: cited from earlier work
lysosomal ADA = details: 0.2 mM; cited from earlier work
adenosine deaminase = details: cited from earlier work
Dictyostelium discoideum = details: 5 mM, four hours; cited from earlier work
[2] = system: mature rRNA in Novikoff hepatoma cells; details: cited from earlier work
bovine liver SAHH = details: 0.2 mM; cited from earlier work
SAM synthetase = details: cited from earlier work
[3] = system: S-Adenosylmethionine Decarboxylase (SAM-DC); details: cited from earlier work
[4] = system: Staphylococcus aureus, methicillin susceptible; details: in µg/mL; cited from earlier work
[5] = system: Staphylococcus aureus, methicillin resistant; details: cited from earlier work
[6] = system: Streptococcus pyogenes (group A), erythromycin susceptible; details: cited from earlier work
Streptococcus pneumoniae = details: in µg/mL; cited from earlier work
Streptococcus bovis = details: cited from earlier work
[7] = system: E. faecalis (Erythromycin susceptible); details: cited from earlier work
[8] = system: E. faecalis (Erythromycin resistant); details: cited from earlier work
Viridans streptococci = details: cited from earlier work
[9] = system: Coagulase-negative staphylococci, methicillin resistant; details: cited from earlier work
Listeria monocytogenes = details: in µg/mL; cited from earlier work
Haemophilus influenzae = details: in µg/mL; cited from earlier work
Moraxella catarrhalis = details: in µg/mL; cited from earlier work
Neisseria gonorrhoeae = details: in µg/mL; cited from earlier work
N. meningitidis = details: in µg/mL; cited from earlier work
Pasteurella multocida = details: cited from earlier work
Bordetella pertussis = details: in µg/mL; cited from earlier work
Legionella pneumophila = details: in µg/mL; cited from earlier work
Campylobacter species = details: in µg/mL; cited from earlier work
[10] = system: Gram-positive cocci (peptococcus, peptostreptococcus); details: anaerobes; cited from earlier work
Bacteroides fragilis = details: anaerobes; in µg/mL; cited from earlier work
Clostridium perfringens = details: anaerobes; in µg/mL; cited from earlier work
Chlamydia trachomatis = details: in µg/mL; cited from earlier work
Mycoplasma pneumoniae [11] = details: in µg/mL; cited from earlier work
[12] = cited from earlier work
SAH in hepatocytes = details: cited from earlier work
Trypanosomiasis = details: cited from earlier work
[13] = system: S. aureus 27660 (erythromycin resistant); type: cell-based; details: inhibitor pre-mixed with BHIA or TSA, with erythromycin (FIG. 3)
[14] = system: S. aureus 6538 (erythromycin susceptible); experiment: Erythromycin disk susceptibility with inhibitor pre-mixed in agar; type: cell-based; details: inhibitor pre-mixed with BHIA or TSA, with erythromycin (FIG. 2)
[15] = system: S. aureus 27660 (erythromycin resistant); experiment: Erythromycin disc susceptibility after pre-incubation with inhibitor discs (second procedure); details: 310 μg/disc, pre-incubation 0-5 hours, 18 hours incubation (FIG. 4)
Mycoplasma hominis = details: cited from earlier work
Mycoplasma pneumoniae [16] = details: cited from earlier work
Staphylococcus aureus = details: cited from earlier work
Ureaplasma urealyticum = details: cited from earlier work
[17] = system: E. coli glutathione synthetase; details: cited from earlier work
[18] = system: methylation reactions in peripheral blood monocytes; details: cited from earlier work
tRNA methylases = details: cited from earlier work
[19] = system: tRNA methylases isolated from E. coli; details: cited from earlier work
[20] = system: 28S rRNA, 18S rRNA and tRNA; details: NPA 10 μM; c^3 -NPA 10 μM; c^3 -Ari 100 μM; cited from earlier work
SAHH hydrolase = details: cited from earlier work
glutathione = details: ip.; 4.5 mmol/kg buthionine sulfoximine and […] diethyl maleate; cited from earlier work
rRNA of S. cerevisiae = details: cited from earlier work
RNA methylation = details: cited from earlier work

For `N=C(N)NCCCC(N)(C(=O)O)C(F)F` (racemic) [DFMA, difluoromethylarginine], the arginine decarboxylase inhibition (arginine decarboxylase) is listed as “irreversible inhibitor of ADC” and the arginine decarboxylase inhibition (arginine decarboxylase; listed as DL-α-(difluoromethyl)arginine) is listed as “potent and irreversible inhibitor of bacterial ADC”.
For `COC(=O)C(N)(C=CCN)CF` (racemic) [DL-α-monofluoromethyldehydroornithine methylester], the Ki [1] is given as 3000 nM.
In the case of `CCCCCC[C@H]([C@H](C)O)n1cnc2c(N)ncnc21` (relative stereo) [erythro-9-(2-hydroxy-3-nonyl)adenine], the “inhibition of lysosomal ADA” value (lysosomal ADA) is given as greater than 97% and the ADA inhibition (adenosine deaminase) is given as “inhibitors of ADA”.
In the case of `NCC(O)CN` [1,3-diaminopropan-2-ol], the “growth of D. discoideum” value (Dictyostelium discoideum) is given as “arrested in four hours”.
In the case of `Nc1nc2c(ncn2[C@@H]2O[C@H](CO)[C@@H](O)[C@H]2O)c(=S)[nH]1` [6-thioguanosine], the “formation of mature rRNA” value [2] is listed as “inhibit the formation of mature 28S and 18”.
In the case of `Nc1ncnc2c1nnn2[C@@H]1C[C@H](CO)[C@@H](O)[C@H]1O` [8-azaaristeromycin], the inhibition (bovine liver SAHH) is given as 46%.
In the case of `Nc1ncnc2c1ncn2[C@@H]1O[C@H](COP(=O)(O)NP(=O)(O)OP(=O)(O)O)[C@@H](O)[C@H]1O` [AMPNPP], the “effectiveness, fold versus AMPCPP” value (SAM synthetase) is given as “about 1000 fold”, the “inhibition constant, fold less than the Km of ATP” value (SAM synthetase) is given as 60 fold and the “substrate and inhibitor of SAM synthetase” value (SAM synthetase) is given as “both a substrate for SAM synthetase and a potent inhibitor”.
For `CN(C/C=C\CN)C[C@H]1O[C@@H](n2cnc3c(N)ncnc32)[C@H](O)[C@@H]1O` [AbeAdo, 5'-{[(Z)-4-amino-2-butenyl]methylamino}-5'-deoxyadenosine], the SAM-DC inhibition [3] is given as “powerful irreversible inhibitors of SAM-DC”.
In the case of `CC[C@H]1OC(=O)[C@H](C)[C@@H](O[C@H]2C[C@@](C)(OC)[C@@H](O)[C@H](C)O2)[C@H](C)[C@@H](O[C@@H]2O[C@H](C)C[C@H](N(C)C)[C@H]2O)[C@](C)(O)C[C@@H](C)CN(C)[C@H](C)[C@@H](O)[C@]1(C)O` [Azithromycin], the MIC90 [4] is listed as 1.0, the MIC90 [5] is listed as greater than 128 µg/mL and the MIC90 [6] is listed as 0.12 µg/mL (≈ 0.16 µM). For the same compound, the MIC90 (Streptococcus pneumoniae) was 0.12, the MIC90 (Streptococcus bovis) was 0.25 µg/mL (≈ 0.334 µM) and the MIC90 [7] was 8 µg/mL (≈ 10.7 µM). The MIC90 [8] was greater than 64 µg/mL, the MIC90 (Viridans streptococci) was 16 µg/mL (≈ 21.4 µM) and the MIC90 [9] was greater than 128 µg/mL. For the same compound, the MIC90 (Listeria monocytogenes) was 4.0, the MIC90 (Haemophilus influenzae) was 1.0 and the MIC90 (Moraxella catarrhalis) was 0.5. For the same compound, the MIC90 (Neisseria gonorrhoeae) was 0.15, the MIC90 (N. meningitidis) was 0.12 and the MIC90 (Pasteurella multocida) was 0.5 µg/mL (≈ 0.668 µM). For the same compound, the MIC90 (Bordetella pertussis) was 0.12, the MIC90 (Legionella pneumophila) was 0.25-2.0 and the MIC90 (Campylobacter species) was 0.25. For the same compound, the MIC90 [10] was 2 µg/mL (≈ 2.67 µM), the MIC90 (Bacteroides fragilis) was 8.0 and the MIC90 (Clostridium perfringens) was 1.0. The MIC90 (Chlamydia trachomatis) was 0.12-0.25, the MIC90 (Mycoplasma pneumoniae [11]) was 0.001 and the tissue half-life [12] was “prolonged tissue half-life”.
For `Nc1ncnc2c1ncn2C[C@@H](O)[C@@H](O)C(=O)O` [D-eritadine], the “inactivation of SAH” value (SAH in hepatocytes) is given as “inactivate SAH in hepatocytes”.
For `NCCCC(N)(C(=O)O)C(F)F` (stereo not drawn) [DFMO, difluoromethylornithine], the ODC inhibition [1] is listed as “irreversible inhibitor of ornithine decarboxylase”, the clinical effectiveness (Trypanosomiasis; different dosage levels and modes of treatment) is listed as “effective against Trypanosomiasis” and the safety (Trypanosomiasis; human, in vivo) is listed as “safe and well tolerated and the side effects are reversible”.
With `CCSCC[C@H](N)C(=O)O` [Ethionine] the “increase in the size of the clear zone” value [13] was “increase in the size of the clear zone”, the “increase in the size of the clear zone” value [14] was “increase in the size of the clear zone” and the “increase in clear zones relative to erythromycin alone” value [15] was “Increases in clear zones were observed”.
For `Nc1ncnc2c1ncn2C[C@H](O)[C@H](O)C(=O)O` [L-eritadenine], the “inactivation of SAH” value (SAH in hepatocytes) is given as “inactivate SAH in hepatocytes”.
For `Nc1ncnc2c1ncn2C[C@H](O)[C@@H](O)C(=O)O` [L-threo-eritadenine], the “inactivation of SAH” value (SAH in hepatocytes) is given as “inactivate SAH in hepatocytes”.
In the case of `CCC[C@@H]1C[C@@H](C(=O)N[C@@H]([C@H]2O[C@H](SC)[C@H](O)[C@@H](O)[C@H]2O)[C@@H](C)O)N(C)C1` [Lincomycin], the MIC50 (Mycoplasma hominis) is given as 2 µg/mL (≈ 4.92 µM), the MIC90 (Mycoplasma hominis) is given as 4 µg/mL (≈ 9.84 µM) and the Range (Mycoplasma hominis) is given as 0.5-16. The MIC50 (Mycoplasma pneumoniae [16]) was 8 µg/mL (≈ 19.7 µM), the MIC90 (Mycoplasma pneumoniae [16]) was 32 µg/mL (≈ 78.7 µM) and the Range (Mycoplasma pneumoniae [16]) was 2-32. The MIC50 (Staphylococcus aureus) was 1 µg/mL (≈ 2.46 µM), the MIC90 (Staphylococcus aureus) was 1 µg/mL (≈ 2.46 µM) and the Range (Staphylococcus aureus) was 0.5-512. The MIC50 (Ureaplasma urealyticum) was no less than 128 µg/mL and the MIC90 (Ureaplasma urealyticum) was no less than 128 µg/mL.
In the case of `CN(CCCNN)C[C@H]1O[C@@H](n2cnc3c(N)ncnc32)[C@H](O)[C@@H]1O` [MHZPA, 5'-deoxy-5'-[(3-hydrazinopropyl)methylamino]adenosine], the SAM-DC inhibition [3] is given as “powerful irreversible inhibitors of SAM-DC”.
For `CN(Cc1cnc2nc(N)nc(N)c2n1)c1ccc(C(=O)N[C@@H](CCC(=O)O)C(=O)O)cc1` [Methotrexate], the inhibition [17] is given as “potently inhibited”, the SAH metabolism ([18]; cultured cells and patients) is given as “affects SAH metabolism” and the methylation reactions ([18]; low concentrations, in vitro) is given as “interfere with specific methylation reactions”.
In the case of `CNc1ncnc2c1ncn2[C@@H]1C[C@H](CO)[C@@H](O)[C@H]1O` [N^6 -methylaristeromycin], the inhibition (bovine liver SAHH) is listed as 22%.
In the case of `Nc1ncnc2nc[nH]c12` [adenine], the “inhibition of tRNA methylases” value (tRNA methylases) is given as “gave inhibition that would be acceptable” and the “inhibition of E. coli tRNA methylases” value [19] is given as “inhibitory to tRNA methylases isolated from E. coli”.
For `Nc1ncnc2c1ncn2[C@@H]1O[C@H](CO)[C@@H](O)[C@H]1O` [adenosine], the “inhibition of E. coli tRNA methylases” value [19] is listed as “inhibitory to tRNA methylases isolated from E. coli”.
In the case of `Nc1nccc2c1ncn2[C@@H]1C[C@H](CO)[C@@H](O)[C@H]1O` [c^3 -Ari, 3-deazaaristeromycin], the “methylation of 28S rRNA, 18S rRNA and tRNA” value [20] is listed as “inhibit the methylation of 28S rRNA, 18S rRNA and tRNA”, the inhibition (bovine liver SAHH) is listed as 97% and the “antiviral activity and cytotoxicity vs first generation” value (SAHH hydrolase) is listed as “retained antiviral activity and considerably lower cytotoxicity than their parent first generation inhibitors”.
In the case of `CCOC(=O)/C=C\C(=O)OCC` [diethyl maleate], the depletion of glutathione (glutathione) is listed as “depleted liver and aortic glutathione”.
In the case of `N#Cc1cn([C@@H]2O[C@H](CO)[C@@H](O)[C@H]2O)c2ncnc(N)c12` [toyocamycin], the “maturation of rRNA” value (rRNA of S. cerevisiae) is listed as “inhibit the maturation of rRNA” and the “formation of mature rRNA” value [2] is listed as “inhibit the formation of mature 28S and 18”.
In the case of `COc1cc(Cc2cnc(N)nc2N)cc(OC)c1OC` [trimethoprim], the inhibition [17] is listed as “potently inhibited”.
In the case of `Nc1ncnc2c1ncn2[C@@H]1O[C@H](CO)[C@H](O)[C@H]1O` [xylosyladenine, 9-B-D-xylofuranosyladenine], the DNA methylation (RNA methylation) is listed as “not inhibited”, the “formation of methyluridine, 2'-O-methylcytidine, 5-methyluridine and 5-methylcytidine in RNA” value (RNA methylation) is listed as “reduced” and the “inhibition of RNA methylation” value (RNA methylation) is listed as “marked inhibition of RNA methylation”.
In the case of `C[C@](N)(CCCN)C(=O)O` [α-methylornithine], the “growth of D. discoideum” value (Dictyostelium discoideum) is listed as “arrested in four hours”.

From US5872104A, “Combinations and methods for reducing antimicrobial resistance” (Oridigm Corporation, priority 1994, dated 1999)
